US11208435B2, “Verticilide enantiomer and methods of inhibiting cardiac ryanodine receptor-mediated intracellular calcium release” (Vanderbilt University, priority 2017, dated 2021)

Columns and labels:
RyR2 [1] = target: T1, RyR2 (Mus musculus, UniProt E9Q401); experiment: Ca2+ sparks in saponin-permeabilized Casq2-/- ventricular myocytes; format: cell-based; conditions: 25 μM, permeabilized Casq2-/- cardiomyocytes, vs DMSO
T1 construct: spontaneous openings of intracellular RyR2; endogenous in cells; host or cells: ventricular cardiomyocytes isolated from Casq2-/- mice (A1, A6) or wild-type mice (A5)
Procedure: (FIG. 2A) Representative confocal line scans of Ca2+ sparks in the absence (DMSO) or presence of 25 μM nat-1 or ent-1 in permeabilized Casq2−/− cardiomyocytes. (FIG. 2B) Ca2+ spark frequency in Casq2−/− cells treated with 25 μM nat-1, 7, 8, and their respective enantiomers. (FIG. 2C) Comparison of [3H]ryanodine binding to SR isolated from porcine longissimus dorsi (RyR1) or cardiac ventricle (RyR2) in the presence of 50 μM nat-1, ent-1, or tetracaine (tet). (FIG. 2D) Dose response curves for ent-1 and tet inhibition of [3H]ryanodine binding to RyR2. (FIG. 2E) Representative Ca2+ sparks from permeabilized wild-type cardiomyocytes treated with 3 μM ent-1, 25 μM flecainide, or 50 μM tetracaine. […] SR Ca2+ content was measured as the Ca2+ transient amplitude elicited by application of 10 mM caffeine (n≥5 cells per group). […]
Ventricular mouse myocytes were isolated, permeabilized with saponin to enable equivalent access of the compounds to the SR membrane, and incubated with DMSO or 25 μM nat- and ent-1, 7, 8. RyR2 activity was measured in the form of Ca^2+ sparks, which are elementary Ca^2+ release events generated by spontaneous openings of intracellular RyR2 Ca^2+ release channels. […] To confirm that [Ca^2+]free was not altered by any of the compounds, Fluo-4 fluorescence was measured under spark assay conditions. […]

[2] = [Ca2+]free by Fluo-4 fluorescence under spark assay conditions; format: physicochemical; conditions: 25 μM, 10 minutes in internal spark solution
Procedure: Ventricular mouse myocytes were isolated, permeabilized with saponin to enable equivalent access of the compounds to the SR membrane, and incubated with DMSO or 25 μM nat- and ent-1, 7, 8. RyR2 activity was measured in the form of Ca^2+ sparks, which are elementary Ca^2+ release events generated by spontaneous openings of intracellular RyR2 Ca^2+ release channels. […] Cardiac SR Ca^2+ release is sensitive to the Ca^2+ concentration present at the cytosolic face of RyR2. To confirm that [Ca^2+]free was not altered by any of the compounds, Fluo-4 fluorescence was measured under spark assay conditions. The internal spark solution was incubated with DMSO or 25 μM nat-1, 7, 8, and their respective enantiomers for 10 minutes and [Ca^2+]free was calculated from a set of Ca^2+ standards.

RyR1 = target: T2, RyR1 (Sus scrofa, UniProt P16960); experiment: [3H]ryanodine binding to skeletal muscle SR; design: species or system porcine; conditions: 50 μM, three hours
T2 construct: SR isolated from porcine longissimus dorsi (RyR1); from tissue; host or cells: porcine longissimus dorsi sarcoplasmic reticulum
Procedure: (FIG. 2A) Representative confocal line scans of Ca2+ sparks in the absence (DMSO) or presence of 25 μM nat-1 or ent-1 in permeabilized Casq2−/− cardiomyocytes. (FIG. 2B) Ca2+ spark frequency in Casq2−/− cells treated with 25 μM nat-1, 7, 8, and their respective enantiomers. (FIG. 2C) Comparison of [3H]ryanodine binding to SR isolated from porcine longissimus dorsi (RyR1) or cardiac ventricle (RyR2) in the presence of 50 μM nat-1, ent-1, or tetracaine (tet). (FIG. 2D) Dose response curves for ent-1 and tet inhibition of [3H]ryanodine binding to RyR2. (FIG. 2E) Representative Ca2+ sparks from permeabilized wild-type cardiomyocytes treated with 3 μM ent-1, 25 μM flecainide, or 50 μM tetracaine. Graph indicates amplitude of Ca2+ release of the selected representative sparks over time. (FIG. 2F) Percent change in spark frequency, amplitude, mass, leak, and SR Ca2+ content relative to vehicle (DMSO), obtained from wild-type myocytes. SR Ca2+ content was measured as the Ca2+ transient amplitude elicited by application of 10 mM caffeine (n≥5 cells per group). Data are presented as mean±SEM. N≥30 cells per group for A, B, and F. N=4 replicates for each concentration tested in C and D. *p<0.05 vs DMSO, **p<0.01 vs DMSO, ***p<0.001 vs DMSO by 1-way ANOVA with Tukey's post-hoc test (B) or t-test (C, D, and F). […]

RyR2 [3] = target: T3, RyR2 (Sus scrofa, UniProt A0A5G2R1W3); experiment: [3H]ryanodine binding to cardiac SR; design: species or system porcine; conditions: for [3H]ryanodine binding (RyR2 activity): 50 μM, three hours
T3 construct: cardiac ventricle (RyR2); from tissue; host or cells: porcine cardiac ventricle sarcoplasmic reticulum
Procedure: (§1) (FIG. 2A) Representative confocal line scans of Ca2+ sparks in the absence (DMSO) or presence of 25 μM nat-1 or ent-1 in permeabilized Casq2−/− cardiomyocytes. (FIG. 2B) Ca2+ spark frequency in Casq2−/− cells treated with 25 μM nat-1, 7, 8, and their respective enantiomers. (FIG. 2C) Comparison of [3H]ryanodine binding to SR isolated from porcine longissimus dorsi (RyR1) or cardiac ventricle (RyR2) in the presence of 50 μM nat-1, ent-1, or tetracaine (tet). (FIG. 2D) Dose response curves for ent-1 and tet inhibition of [3H]ryanodine binding to RyR2. (FIG. 2E) Representative Ca2+ sparks from permeabilized wild-type cardiomyocytes treated with 3 μM ent-1, 25 μM flecainide, or 50 μM tetracaine. Graph indicates amplitude of Ca2+ release of the selected representative sparks over time. (FIG. 2F) Percent change in spark frequency, amplitude, mass, leak, and SR Ca2+ content relative to vehicle (DMSO), obtained from wild-type myocytes. SR Ca2+ content was measured as the Ca2+ transient amplitude elicited by application of 10 mM caffeine (n≥5 cells per group). Data are presented as mean±SEM. N≥30 cells per group for A, B, and F. N=4 replicates for each concentration tested in C and D. *p<0.05 vs DMSO, **p<0.01 vs DMSO, ***p<0.001 vs DMSO by 1-way ANOVA with Tukey's post-hoc test (B) or t-test (C, D, and F).
(§2) Skeletal and cardiac SR were incubated with 50 μM nat-1, ent-1, and tetracaine for three hours. Nat-1 increased RyR1 activity, but had no effect on RyR2 (FIG. 2C). Conversely, ent-1 inhibited RyR2, but had no effect on RyR1. The well-established RyR inhibitor, tetracaine, inhibited both isoforms. Ent-1 was selected to generate full dose response curves for both cardiac and skeletal SR. Ent-1 inhibited RyR2 in a concentration-dependent manner with an apparent IC50 of approximately 0.1 μM and maximal inhibition of approximately 20% (FIG. 2D), but had no effect on RyR1 up to 50 μM (Figure S2). […] To further characterize the Ca^2+ release inhibition by ent-1, the present inventors applied a lower concentration (3 μM) to wild type mouse myocytes and compared results to two other classical Ca^2+ release inhibitors, flecainide and tetracaine (representative line scans and sparks are shown in FIG. 2E).

insect RyR = conditions: read-out: IC50, binding insect RyR; cited from earlier work
Casq2^−/− mice = experiment: Catecholamine-induced ventricular arrhythmia, ECG in Casq2-/- mice; format: in vivo, mouse; conditions: 30 mg/kg i.p.
Procedure: (FIG. 3A) Isolated cardiomyocytes were field stimulated at 3 Hz for 20 seconds followed by 40 seconds recording of SCR events (†). Application of 10 mM caffeine (caff) was used to measure SR Ca2+ content. (FIG. 3B) SCR frequency following cessation of pacing. N=63, 27, 31, 63, 30, and 27 cells for […] ent-1, respectively. **p<0.01, ***p<0.001 vs DMSO by t-test. (FIG. 3C) Representative heart rate traces in Casq2−/− mice treated with DMSO or ent-1. Isoproterenol (3.0 mg/kg i.p.) was injected at 0 s. Rhythm strips show arrhythmia features. Ectopic beats (†) produce a variable HR in the traces. (FIG. 3D) Quantification of catecholamine-induced ectopic beats by surface electrocardiogram in Casq2−/− mice injected intraperitoneally with 30 mg/kg (drug/body weight) nat-1 or ent-1 or DMSO of equivalent volume 30 minutes prior to recordings. ***p<0.001 vs DMSO or ###p<0.001 vs nat-1 by Mann-Whitney U-test. (FIG. 3E) Incidence of ventricular tachycardia (VT). p=0.0305 for ent-1 vs DMSO (*) or ent-1 vs nat-1 (#) by Fisher's exact test. N=22 mice per group (D and E). Data in B and D presented as mean±SEM.
To determine whether ent-1 inhibition of Ca^2+ release in cardiomyocytes in vitro translates into activity against ventricular arrhythmia in vivo, Casq2^−/− mice were injected intraperitoneally with 30 mg/kg nat-1, ent-1, or DMSO of equivalent volume. […]

RyR2 [4] = target: T1, RyR2; experiment: Ca2+ sparks in permeabilized wild-type myocytes; format: cell-based; conditions: 3 μM ent-1, 25 μM flecainide, 50 μM tetracaine
Procedure: as §1, §2

spontaneous Ca^2+ waves = conditions: 10 μM; cited from earlier work

T3 sequence (A0A5G2R1W3 20-4900): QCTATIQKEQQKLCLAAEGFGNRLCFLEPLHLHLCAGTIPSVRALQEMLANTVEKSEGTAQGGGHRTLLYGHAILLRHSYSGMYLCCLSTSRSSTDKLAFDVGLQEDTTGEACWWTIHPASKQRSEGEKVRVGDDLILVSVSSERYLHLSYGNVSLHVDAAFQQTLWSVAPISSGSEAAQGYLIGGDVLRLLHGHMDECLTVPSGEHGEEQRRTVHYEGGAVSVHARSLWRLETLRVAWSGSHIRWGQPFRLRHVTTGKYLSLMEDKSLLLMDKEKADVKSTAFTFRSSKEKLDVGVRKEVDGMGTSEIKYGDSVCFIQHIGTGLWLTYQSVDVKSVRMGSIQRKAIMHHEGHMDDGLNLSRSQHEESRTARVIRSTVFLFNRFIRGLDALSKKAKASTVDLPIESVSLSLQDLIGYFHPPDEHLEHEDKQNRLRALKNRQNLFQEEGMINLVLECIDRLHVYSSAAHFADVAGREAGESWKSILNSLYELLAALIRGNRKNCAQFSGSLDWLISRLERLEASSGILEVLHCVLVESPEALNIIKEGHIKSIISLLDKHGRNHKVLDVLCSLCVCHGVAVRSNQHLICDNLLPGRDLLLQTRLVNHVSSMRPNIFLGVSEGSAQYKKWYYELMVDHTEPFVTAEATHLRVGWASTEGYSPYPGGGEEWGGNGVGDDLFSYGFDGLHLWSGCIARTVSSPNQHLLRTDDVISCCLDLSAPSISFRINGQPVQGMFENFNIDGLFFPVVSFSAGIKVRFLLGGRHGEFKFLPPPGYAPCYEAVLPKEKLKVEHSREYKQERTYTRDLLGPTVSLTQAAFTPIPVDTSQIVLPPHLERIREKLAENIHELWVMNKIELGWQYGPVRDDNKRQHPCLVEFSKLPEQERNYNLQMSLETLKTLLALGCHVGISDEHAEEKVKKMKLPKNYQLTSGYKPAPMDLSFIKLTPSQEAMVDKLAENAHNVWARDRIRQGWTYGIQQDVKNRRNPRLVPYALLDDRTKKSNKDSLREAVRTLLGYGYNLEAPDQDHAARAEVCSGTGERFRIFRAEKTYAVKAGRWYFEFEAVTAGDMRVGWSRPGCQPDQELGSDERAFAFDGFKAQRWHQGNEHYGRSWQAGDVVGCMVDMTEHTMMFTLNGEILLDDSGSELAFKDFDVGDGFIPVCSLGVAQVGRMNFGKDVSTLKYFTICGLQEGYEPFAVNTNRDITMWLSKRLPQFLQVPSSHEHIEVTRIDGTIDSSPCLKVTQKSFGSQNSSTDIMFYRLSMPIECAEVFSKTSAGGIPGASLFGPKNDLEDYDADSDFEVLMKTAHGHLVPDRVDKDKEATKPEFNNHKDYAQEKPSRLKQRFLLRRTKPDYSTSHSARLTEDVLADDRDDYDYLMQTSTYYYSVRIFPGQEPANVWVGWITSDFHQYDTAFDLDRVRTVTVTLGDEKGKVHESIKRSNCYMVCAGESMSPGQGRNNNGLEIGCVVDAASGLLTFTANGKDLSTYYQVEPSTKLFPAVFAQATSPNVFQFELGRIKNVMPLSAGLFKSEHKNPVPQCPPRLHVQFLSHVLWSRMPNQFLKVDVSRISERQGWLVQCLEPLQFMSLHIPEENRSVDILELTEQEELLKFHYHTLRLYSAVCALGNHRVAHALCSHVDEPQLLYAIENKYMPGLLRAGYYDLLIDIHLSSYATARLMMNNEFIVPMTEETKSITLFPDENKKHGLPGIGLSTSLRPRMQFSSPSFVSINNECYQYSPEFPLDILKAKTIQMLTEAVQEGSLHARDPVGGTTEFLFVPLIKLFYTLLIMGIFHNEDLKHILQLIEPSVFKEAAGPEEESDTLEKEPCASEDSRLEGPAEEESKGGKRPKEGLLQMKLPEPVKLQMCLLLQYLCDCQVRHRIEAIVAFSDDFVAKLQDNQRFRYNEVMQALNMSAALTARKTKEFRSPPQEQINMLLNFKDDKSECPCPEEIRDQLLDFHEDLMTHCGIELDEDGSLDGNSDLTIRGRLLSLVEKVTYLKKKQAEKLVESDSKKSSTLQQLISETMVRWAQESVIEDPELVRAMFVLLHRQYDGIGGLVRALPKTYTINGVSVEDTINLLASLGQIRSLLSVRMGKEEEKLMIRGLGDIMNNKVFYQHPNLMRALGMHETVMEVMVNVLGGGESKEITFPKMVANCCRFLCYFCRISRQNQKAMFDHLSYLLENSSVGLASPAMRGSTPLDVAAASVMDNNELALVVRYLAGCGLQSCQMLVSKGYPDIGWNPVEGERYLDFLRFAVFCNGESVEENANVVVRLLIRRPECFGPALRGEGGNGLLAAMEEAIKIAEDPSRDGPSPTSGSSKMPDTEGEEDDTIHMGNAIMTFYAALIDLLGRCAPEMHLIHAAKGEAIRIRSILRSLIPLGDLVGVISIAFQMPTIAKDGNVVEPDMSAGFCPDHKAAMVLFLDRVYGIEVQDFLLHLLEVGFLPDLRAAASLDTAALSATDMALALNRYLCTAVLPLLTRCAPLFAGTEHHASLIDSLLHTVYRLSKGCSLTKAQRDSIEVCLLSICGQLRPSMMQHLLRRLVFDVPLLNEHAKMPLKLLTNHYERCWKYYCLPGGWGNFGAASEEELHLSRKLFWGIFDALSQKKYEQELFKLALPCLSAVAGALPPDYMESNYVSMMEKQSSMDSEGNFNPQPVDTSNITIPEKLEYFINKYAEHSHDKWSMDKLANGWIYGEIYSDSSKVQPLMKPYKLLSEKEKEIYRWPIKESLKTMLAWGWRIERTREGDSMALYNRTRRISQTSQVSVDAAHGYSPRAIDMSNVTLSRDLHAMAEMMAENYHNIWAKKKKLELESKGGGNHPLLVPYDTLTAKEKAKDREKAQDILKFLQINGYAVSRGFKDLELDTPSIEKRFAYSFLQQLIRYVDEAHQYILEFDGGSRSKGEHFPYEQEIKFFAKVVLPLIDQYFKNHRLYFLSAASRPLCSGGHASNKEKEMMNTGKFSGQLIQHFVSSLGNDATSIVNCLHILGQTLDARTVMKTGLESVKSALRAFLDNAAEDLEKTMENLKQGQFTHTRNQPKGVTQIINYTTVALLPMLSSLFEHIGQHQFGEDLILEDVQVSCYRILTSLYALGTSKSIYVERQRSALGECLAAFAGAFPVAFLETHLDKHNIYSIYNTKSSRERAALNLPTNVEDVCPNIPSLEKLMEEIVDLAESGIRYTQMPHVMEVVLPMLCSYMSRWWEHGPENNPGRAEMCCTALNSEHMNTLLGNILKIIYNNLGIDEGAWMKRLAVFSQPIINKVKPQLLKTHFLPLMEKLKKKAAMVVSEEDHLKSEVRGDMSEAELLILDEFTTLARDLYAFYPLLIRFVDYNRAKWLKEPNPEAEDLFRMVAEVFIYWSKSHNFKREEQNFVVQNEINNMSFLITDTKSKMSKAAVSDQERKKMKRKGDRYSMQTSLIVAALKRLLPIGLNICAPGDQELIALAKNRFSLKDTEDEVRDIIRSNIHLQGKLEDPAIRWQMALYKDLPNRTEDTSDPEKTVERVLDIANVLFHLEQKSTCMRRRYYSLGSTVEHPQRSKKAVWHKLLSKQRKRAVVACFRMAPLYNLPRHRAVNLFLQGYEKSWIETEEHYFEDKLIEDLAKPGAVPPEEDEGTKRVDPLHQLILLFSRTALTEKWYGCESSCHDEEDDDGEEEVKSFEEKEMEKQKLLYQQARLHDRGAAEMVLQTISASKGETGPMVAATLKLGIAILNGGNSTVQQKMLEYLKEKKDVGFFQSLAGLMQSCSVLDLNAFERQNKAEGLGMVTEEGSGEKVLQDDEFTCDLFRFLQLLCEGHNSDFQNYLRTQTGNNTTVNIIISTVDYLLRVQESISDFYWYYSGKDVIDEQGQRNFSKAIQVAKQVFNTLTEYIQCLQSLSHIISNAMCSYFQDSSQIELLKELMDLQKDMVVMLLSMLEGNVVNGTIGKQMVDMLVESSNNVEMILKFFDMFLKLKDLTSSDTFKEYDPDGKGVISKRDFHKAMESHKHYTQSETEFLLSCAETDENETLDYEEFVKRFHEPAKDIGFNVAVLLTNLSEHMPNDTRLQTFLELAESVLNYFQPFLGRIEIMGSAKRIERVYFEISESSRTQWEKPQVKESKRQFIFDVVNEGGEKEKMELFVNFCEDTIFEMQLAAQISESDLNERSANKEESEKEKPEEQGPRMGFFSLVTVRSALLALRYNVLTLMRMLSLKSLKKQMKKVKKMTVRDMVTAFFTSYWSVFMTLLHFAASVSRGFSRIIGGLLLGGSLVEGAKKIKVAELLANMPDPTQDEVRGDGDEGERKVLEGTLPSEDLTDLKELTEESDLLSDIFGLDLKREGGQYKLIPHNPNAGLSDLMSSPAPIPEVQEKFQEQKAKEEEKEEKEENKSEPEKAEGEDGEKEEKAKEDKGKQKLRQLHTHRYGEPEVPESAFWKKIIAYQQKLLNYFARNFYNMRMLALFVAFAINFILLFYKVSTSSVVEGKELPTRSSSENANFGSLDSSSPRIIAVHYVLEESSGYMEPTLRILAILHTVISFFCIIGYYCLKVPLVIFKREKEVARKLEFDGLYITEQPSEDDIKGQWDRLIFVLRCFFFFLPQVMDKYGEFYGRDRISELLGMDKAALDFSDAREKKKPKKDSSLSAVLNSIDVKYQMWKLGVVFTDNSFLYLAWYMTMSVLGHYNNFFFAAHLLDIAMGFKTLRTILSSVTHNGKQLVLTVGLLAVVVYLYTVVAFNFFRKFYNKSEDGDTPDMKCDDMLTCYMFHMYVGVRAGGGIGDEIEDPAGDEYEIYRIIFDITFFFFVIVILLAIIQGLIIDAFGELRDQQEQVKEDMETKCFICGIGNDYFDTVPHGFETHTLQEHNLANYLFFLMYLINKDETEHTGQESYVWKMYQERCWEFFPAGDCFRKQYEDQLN

Row | SMILES | [3H]ryanodine binding (RyR1 activity) (RyR1) | [3H]ryanodine binding (RyR2 activity) (RyR2 [3]) | Ca2+ spark frequency (RyR2 [4]) | Ca2+ spark mass (RyR2 [4]) | Ca2+ spark mediated SR Ca2+ leak (RyR2 [4]) | further results
1 | CCCCCC1OC(=O)C(C)N(C)C(=O)C(CCCCC)OC(=O)C(C)N(C)C(=O)C(CCCCC)OC(=O)C(C)N(C)C(=O)C(CCCCC)OC(=O)C(C)N(C)C1=O (single isomer, unassigned; (-)) [nat-1, (−)-Verticilide] | increased | no effect | – | – | – | Ca2+ spark frequency (RyR2 [1]): no effect; binding to Ca2+ ([Ca2+]free) [2]: did not bind to Ca^2+; IC50 (insect RyR): 4200 nM
2 | CCCCC[C@@H]1OC(=O)[C@@H](C)N(C)C(=O)[C@H](CCCCC)OC(=O)[C@@H](C)N(C)C(=O)[C@H](CCCCC)OC(=O)[C@@H](C)N(C)C(=O)[C@H](CCCCC)OC(=O)[C@@H](C)N(C)C1=O (single isomer, unassigned) [ent-1, ent-(+)-verticilide] | – | – | – | – | – | IC50 (RyR2 [3]): ~100 nM; maximal inhibition of [3H]ryanodine binding to RyR2 (RyR2 [3]; dose response, cardiac SR): approximately 20%; ECG PR interval (Casq2^−/− mice; index of Ca2+ channel block): no significant effect; ECG QRS duration (Casq2^−/− mice; index of Na+ channel block): no significant effect
3 | CCCCNc1ccc(C(=O)OCCN(C)C)cc1 [tetracaine] | inhibited | inhibited | depresses | did not reduce | only modestly reduces | –
4 | O=C(NCC1CCCCN1)c1cc(OCC(F)(F)F)ccc1OCC(F)(F)F (stereo not drawn) [flecainide] | – | – | paradoxical increase | reduces the amount of Ca^2+ released during a spark | leak-neutral blocker | effectiveness in suppressing spontaneous Ca2+ waves (spontaneous Ca^2+ waves): 30%
